Measurements as given in PubChem BioAssay (NCI).
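Each compound was tested at five concentrations against cells in 96-well plates for 48 hours. TGI is the concentration that stops growth completely.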

Experiments:
Assay in all cases: growth of human tumour cells (NCI), 48 h
XF 498 CNS = test system: XF 498 CNS
CAKI-1 renal = test system: CAKI-1 renal
CCRF-CEM leukemia = test system: CCRF-CEM leukemia
DLD-1 colon = test system: DLD-1 colon
DMS 114 small cell lung = test system: DMS 114 small cell lung
HCT-116 colon = test system: HCT-116 colon
M14 melanoma = test system: M14 melanoma
MOLT-4 leukemia = test system: MOLT-4 leukemia
DMS 273 small cell lung = test system: DMS 273 small cell lung
SF-539 CNS = test system: SF-539 CNS
SF-268 CNS = test system: SF-268 CNS
LXFL 529 NSCLC = test system: LXFL 529 NSCLC
RPMI-8226 leukemia = test system: RPMI-8226 leukemia
RXF-631 renal = test system: RXF-631 renal
SNB-75 CNS = test system: SNB-75 CNS
NCI-H460 lung = test system: NCI-H460 lung
COLO 205 colon = test system: COLO 205 colon
M19-MEL melanoma = test system: M19-MEL melanoma
HCC-2998 colon = test system: HCC-2998 colon
HOP-62 NSCLC = test system: HOP-62 NSCLC
SK-OV-3 ovarian = test system: SK-OV-3 ovarian
SNB-78 CNS = test system: SNB-78 CNS
NCI-H522 lung = test system: NCI-H522 lung
UACC-62 melanoma = test system: UACC-62 melanoma
OVCAR-4 ovarian = test system: OVCAR-4 ovarian
SK-MEL-2 melanoma = test system: SK-MEL-2 melanoma
HOP-92 NSCLC = test system: HOP-92 NSCLC
HL-60(TB) leukemia = test system: HL-60(TB) leukemia
IGROV1 ovarian = test system: IGROV1 ovarian
SR leukemia = test system: SR leukemia
UO-31 renal = test system: UO-31 renal
SK-MEL-28 melanoma = test system: SK-MEL-28 melanoma
A498 renal = test system: A498 renal
NCI-H226 lung = test system: NCI-H226 lung
786-0 renal = test system: 786-0 renal
MALME-3M melanoma = test system: MALME-3M melanoma
K-562 leukemia = test system: K-562 leukemia
SN12C renal = test system: SN12C renal
NCI-H23 lung = test system: NCI-H23 lung
UACC-257 melanoma = test system: UACC-257 melanoma
RXF 393 renal = test system: RXF 393 renal
EKVX NSCLC = test system: EKVX NSCLC
SK-MEL-5 melanoma = test system: SK-MEL-5 melanoma
KM12 colon = test system: KM12 colon
KM20L2 colon = test system: KM20L2 colon
SF-295 CNS = test system: SF-295 CNS
HT29 colon = test system: HT29 colon
OVCAR-3 ovarian = test system: OVCAR-3 ovarian
HCT-15 colon = test system: HCT-15 colon
HOP-18 NSCLC = test system: HOP-18 NSCLC
A549 NSCLC = test system: A549 NSCLC
U251 CNS = test system: U251 CNS
LOX IMVI melanoma = test system: LOX IMVI melanoma
SNB-19 CNS = test system: SNB-19 CNS
OVCAR-8 ovarian = test system: OVCAR-8 ovarian
ACHN renal = test system: ACHN renal
OVCAR-5 ovarian = test system: OVCAR-5 ovarian
SW-620 colon = test system: SW-620 colon
TK-10 renal = test system: TK-10 renal

## CCN(CC)C1CC(n2cc(C)c(=O)[nH]c2=O)OC1CO (stereo not given)
XF 498 CNS
  TGI: > 100 µM
CAKI-1 renal
  TGI: > 100 µM
CCRF-CEM leukemia
  TGI: > 100 µM
DLD-1 colon
  TGI: > 100 µM
DMS 114 small cell lung
  TGI: > 100 µM
HCT-116 colon
  TGI: > 100 µM
M14 melanoma
  TGI: > 100 µM
MOLT-4 leukemia
  TGI: > 100 µM
DMS 273 small cell lung
  TGI: > 100 µM
SF-539 CNS
  TGI: > 100 µM
SF-268 CNS
  TGI: > 100 µM
LXFL 529 NSCLC
  TGI: > 100 µM
RPMI-8226 leukemia
  TGI: > 100 µM
RXF-631 renal
  TGI: > 100 µM
SNB-75 CNS
  TGI: > 100 µM
NCI-H460 lung
  TGI: > 100 µM
COLO 205 colon
  TGI: > 100 µM
M19-MEL melanoma
  TGI: > 100 µM
HCC-2998 colon
  TGI: > 100 µM
HOP-62 NSCLC
  TGI: > 100 µM
SK-OV-3 ovarian
  TGI: > 100 µM
SNB-78 CNS
  TGI: > 100 µM
NCI-H522 lung
  TGI: > 100 µM
UACC-62 melanoma
  TGI: > 100 µM
OVCAR-4 ovarian
  TGI: > 100 µM
SK-MEL-2 melanoma
  TGI: > 100 µM
HOP-92 NSCLC
  TGI: > 100 µM
HL-60(TB) leukemia
  TGI: > 100 µM
IGROV1 ovarian
  TGI: > 100 µM
SR leukemia
  TGI: > 100 µM
UO-31 renal
  TGI: > 100 µM
SK-MEL-28 melanoma
  TGI: > 100 µM
A498 renal
  TGI: > 100 µM
NCI-H226 lung
  TGI: > 100 µM
786-0 renal
  TGI: > 100 µM
MALME-3M melanoma
  TGI: > 100 µM
K-562 leukemia
  TGI: > 100 µM
SN12C renal
  TGI: > 100 µM
NCI-H23 lung
  TGI: > 100 µM

## COC(=O)c1nc(N)[nH]c(=O)c1CCCCCc1c(C(=O)OC)nc(N)[nH]c1=O
UACC-257 melanoma
  TGI: > 50 µM
XF 498 CNS
  TGI: > 50 µM
RXF 393 renal
  TGI: > 50 µM
CAKI-1 renal
  TGI: > 50 µM
CCRF-CEM leukemia
  TGI: > 50 µM
DLD-1 colon
  TGI: > 50 µM
EKVX NSCLC
  TGI: > 50 µM
DMS 114 small cell lung
  TGI: > 50 µM
HCT-116 colon
  TGI: > 50 µM
SK-MEL-5 melanoma
  TGI: > 50 µM
M14 melanoma
  TGI: > 50 µM
KM12 colon
  TGI: > 50 µM
DMS 273 small cell lung
  TGI: > 50 µM
SF-539 CNS
  TGI: > 50 µM
SF-268 CNS
  TGI: > 50 µM
KM20L2 colon
  TGI: > 50 µM
SF-295 CNS
  TGI: > 50 µM
LXFL 529 NSCLC
  TGI: > 50 µM
HT29 colon
  TGI: > 50 µM
OVCAR-3 ovarian
  TGI: > 50 µM
RPMI-8226 leukemia
  TGI: > 50 µM
HCT-15 colon
  TGI: > 50 µM
HOP-18 NSCLC
  TGI: > 50 µM
RXF-631 renal
  TGI: > 50 µM
A549 NSCLC
  TGI: > 50 µM
SNB-75 CNS
  TGI: > 50 µM
NCI-H460 lung
  TGI: > 50 µM
U251 CNS
  TGI: > 50 µM
COLO 205 colon
  TGI: > 50 µM
M19-MEL melanoma
  TGI: > 50 µM
HCC-2998 colon
  TGI: > 50 µM
HOP-62 NSCLC
  TGI: > 50 µM
SK-OV-3 ovarian
  TGI: > 50 µM
SNB-78 CNS
  TGI: > 50 µM
LOX IMVI melanoma
  TGI: > 50 µM
NCI-H522 lung
  TGI: > 50 µM
UACC-62 melanoma
  TGI: > 50 µM
OVCAR-4 ovarian
  TGI: > 50 µM
SK-MEL-2 melanoma
  TGI: > 50 µM
HOP-92 NSCLC
  TGI: > 50 µM
SNB-19 CNS
  TGI: > 50 µM
HL-60(TB) leukemia
  TGI: > 50 µM
IGROV1 ovarian
  TGI: > 50 µM
OVCAR-8 ovarian
  TGI: > 50 µM
UO-31 renal
  TGI: > 50 µM
ACHN renal
  TGI: > 50 µM
SK-MEL-28 melanoma
  TGI: > 50 µM
A498 renal
  TGI: > 50 µM
OVCAR-5 ovarian
  TGI: > 50 µM
786-0 renal
  TGI: > 50 µM
MALME-3M melanoma
  TGI: > 50 µM
SW-620 colon
  TGI: > 50 µM
K-562 leukemia
  TGI: > 50 µM
SN12C renal
  TGI: > 50 µM
NCI-H23 lung
  TGI: > 50 µM
TK-10 renal
  TGI: > 50 µM
